Data published in patent publication US6011058A, “Seco-cholestane derivatives and methods of making the same” (Georgia Tech Research Corporation, priority 1998, dated 2000).
≈ marks a conversion by molar mass, not a printed value. Entries after “also recorded” stand apart in the source; their conditions may differ. Read-outs that look alike come from different tables or passages of the source. Blank lines part the entries; values can stand above or below the molecule they belong to.

Key:
[1] = biological target: T1, glutathione S-transferase (GST) fusion protein containing the full length sequence for human cdc25A (Homo sapiens, UniProt P30304); assay: Inhibition of CDC25A phosphatase (fluorescein diphosphate substrate); assay type: biochemical; conditions: for IC50: 10 mM dithiothreitol, fluorescein diphosphate substrate, read-out: Approximate IC50 (concentration yielding 50% inhibition of cdc25A) (converted); for relative potency against CDC25A, vs the double bond unsaturated compounds in the series: compared with double bond unsaturated compound in this series
T1 construct: made in house; host or cells: Escherichia coli
T1 sequence (P30304 1-524): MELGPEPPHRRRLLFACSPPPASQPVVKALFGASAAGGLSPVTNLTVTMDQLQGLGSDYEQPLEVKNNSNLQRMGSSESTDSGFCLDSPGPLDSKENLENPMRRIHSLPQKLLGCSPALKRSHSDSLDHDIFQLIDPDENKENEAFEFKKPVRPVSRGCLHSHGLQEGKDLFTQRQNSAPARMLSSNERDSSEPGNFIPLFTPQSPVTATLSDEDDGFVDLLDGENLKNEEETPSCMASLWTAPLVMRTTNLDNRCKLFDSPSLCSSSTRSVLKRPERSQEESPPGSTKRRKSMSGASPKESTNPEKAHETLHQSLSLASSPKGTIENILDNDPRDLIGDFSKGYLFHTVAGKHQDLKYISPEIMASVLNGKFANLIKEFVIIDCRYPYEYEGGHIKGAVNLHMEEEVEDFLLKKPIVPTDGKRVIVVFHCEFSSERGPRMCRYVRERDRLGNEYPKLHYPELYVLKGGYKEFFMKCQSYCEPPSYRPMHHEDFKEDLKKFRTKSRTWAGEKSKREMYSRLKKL
From the text: Rice, R. L. et al., A targeted Library of Small-Molecule, Tyrosine, and Dual-Specificity Phosphatase Inhibitors Derived from a Rational Core Design and Random Side Chain Variation, Biochemistry, 1997, 36, 15965-15974. Briefly, the target enzyme for the assay was a glutathione S-transferase (GST) fusion protein containing the full length sequence for human cdc25A. The enzyme was expressed in Escherichia coli and purified by affinity chromatography over glutathione-agarose. Enzyme activity was measured under linear reaction conditions with fluorescein diphosphate as the substrate. Reactions were performed in the presence of 10 mM dithiothreitol to eliminate oxidant-type inhibitors from scoring as hits in this assay.

[2] = tested on: HT-29 human colon cancer cells; assay: Inhibition of HT-29 colon carcinoma cell growth, soft agarose colony-forming assay; assay type: cell-based; conditions: HT-29, 168 h, continuous drug exposure over 7 days, read-out: IC50, proliferation of HT-29 colon cancer cells
Method: (§1) HT-29 human colon cancer cells and A549 human lung adenocarcinoma cells were purchased from the American Tissue Type Collection (Rockville, Md.). The cell were maintained in Dulbecco's modified Eagle's media (DMEM) containing 10% fetal bovine serum and harvested with 0.05% trypsin and 0.5 mM EDTA before becoming confluent.
Compounds 6 and 8 prepared as discussed in the preceding examples were also evaluated for potency as inhibitors of colon cancer cell lines (HT-29). Inhibition of HT-29 colon carcinoma cell growth by compounds 6 and 8 was measured in the soft agarose colony-forming assay with continuous drug exposure over 7 days as previously described. Alley M. C. et al., Activation and inactivation of cancer chemotherapeutic agents by rat heptocytes cocultured with human tumor cell lines, Cancer Res 44:549 (1984). Briefly, soft-agarose culture was performed in 35-mm culture dishes contained a base layer consisting of 0.5 ml of standard culture medium with 0.5% agarose. […] Cell lines forming a sufficient number of detectable colonies were analyzed following 7 days of incubation. Viable colonies were stained using metabolizable tetrazolium salt, and analyzed as described previously. […]

[3] = tested on: A549 human lung adenocarcinoma cells; assay: Clonogenic assay, inhibition of growth of lung adenocarcinoma (A549) cells; assay type: cell-based
Method: as §1
Compound 6 prepared as discussed in the preceding examples were also evaluated for potency as inhibitors of the growth of lung adenocarcinoma cell lines. The effect of compound 6 was assessed with a clonogenic assay. In brief, A549 cells in log-phase growth were harvested, resuspended in fresh growth media and plated in triplicate in 60 mm dishes at cell concentrations estimated to yield 20-100 colonies per dish following treatment. Four hours after plating, cells were either exposed to compound 6 for one day followed by a wash and culture in fresh medium for 11 days (dotted line), or continuously exposed to this compound for 12 days (solid line). Cells were fixed and stained with Coomassie Blue at the end of the 12th day. Colonies with greater than 50 cells were scored.

Molecule: CC(C)CCC[C@@H](C)[C@H]1CC[C@H]2[C@@H]3CC(=O)O[C@](C)(CC/C=C\C#N)[C@H]3CC[C@]12C [Compound 6]
- IC50 [1]: 14.5 µM
- IC50 ([3]; A549, 288 h, 12-day continuous exposure, read-out: concentration reducing number of A549 colonies per dish 50%): 7 µM
- IC50 ([3]; A549, one day exposure, wash, then fresh medium for 11 days, read-out: concentration giving 50% reduction of the tumor cell colony number per dish): 37 µM
- IC50 [2]: 5 µg/mL (≈ 12.1 µM)

Molecule: 3-actoxy-5, 6-seco-5-oxo-pregnen-6-oic acid [reference compound]
- inhibitory activity against CDC25A phosphatase ([1]; negative control): no inhibitory activity; also recorded: lost its activity

Molecule: C=C(CCCCC#N)[C@H]1CC[C@]2(C)[C@@H]([C@H](C)CCCC(C)C)CC[C@H]2[C@@H]1CC(=O)O [Compound 13]
- IC50 [1]: 2.17 µM
- relative potency against CDC25A, vs the double bond unsaturated compounds in the series [1]: much more potent

Molecule: CC(C)CCC[C@@H](C)[C@H]1CC[C@H]2[C@@H]3CC(=O)O[C@](C)(CCCCC#N)[C@H]3CC[C@]12C [Compound 15]
- IC50 [1]: 2.17 µM
- relative potency against CDC25A, vs the double bond unsaturated compounds in the series [1]: much more potent

Molecule: CC(C)CCC[C@@H](C)[C@H]1CC[C@H]2[C@@H]3CC(=O)O[C@@](C)(CC/C=C\C#N)[C@H]3CC[C@]12C [Compound 7]
- IC50 [1]: > 121 µM
- relative activity against CDC25A, vs 10R isomer compound 6 ([1]; 10S vs 10R isomer, compound 6): much less active

The remaining lines, values ahead:

- IC50 [1]: 10.6 µM
- IC50 [2]: 4.8 µg/mL (≈ 11.6 µM)
Molecule: C=C(CC/C=C\C#N)[C@H]1CC[C@]2(C)[C@@H]([C@H](C)CCCC(C)C)CC[C@H]2[C@@H]1CC(=O)O [Compound 8]

- IC50 [1]: > 24.2 µM
Molecule: C/C(=C/C/C=C\C#N)[C@H]1CC[C@]2(C)[C@@H]([C@H](C)CCCC(C)C)CC[C@H]2[C@@H]1CC(=O)O [Compound 9]

- IC50 [1]: 24.2 µM
Molecule: C/C(=C\C/C=C\C#N)[C@H]1CC[C@]2(C)[C@@H]([C@H](C)CCCC(C)C)CC[C@H]2[C@@H]1CC(=O)O [Compound 10]
